Measured values taken from patent publication US8030314B2, “Use of 2h-benzimidazol-2-one, 1,3-dihydro-1-(2{4-[3-(trifluoromethyl)phenyl]-1-piperazinyl}ethyl)-and its physiologically acceptable acid addition salts” (priority 2001, dated 2011).

Experiments:
[1] = tested on: levodopa-induced dyskinesias; experiment: levodopa-induced dyskinesias in MPTP-treated common marmosets; assay type: in vivo, common marmosets (callithrix jacchus)
Procedure: In order to investigate the efficacy of flibanserin in the treatment of levodopa-induced dyskinesias, experiments in a primate model of Parkinson's disease were performed. 6 common marmosets (callithrix jacchus) that developed chronical Parkinsonian motor deficits after MPTP administration were treated orally with levodopa plus carbidopa for 3 weeks according to the procedure described by Pearce et al. (1995). […] The severity of dyskinesias was measured by assessing the extent of choreic and dystonic movements in all parts of the body.

[2] = tested on: 5-HT inhibitory response (forskolin-stimulated cAMP accumulation); conditions: rat cortex; read-out: reduced forskolin-stimulated cAMP accumulation (EC50); cited from earlier work
[3] = tested on: tardive dyskinesias; experiment: persistent tardive dyskinesia model in baboons; assay type: in vivo; conditions: baboons with persistent tardive dyskinesia induced by a haloperidol derivative for 41 weeks
Description: The clinical appearance of levodopa-induced dyskinesias and of tardive dyskinesias are very often similar. […] dyskinesias are frequently observed in chronic schizophrenic patients after long-term treatment with neuroleptics. Recently an animal model of tardive dyskinesia was developed by Eyles at al. 2000. Persistent tardive dyskinesias were induced in 6 baboons by application of a derivative of haloperidol for 41 weeks until the animals developed abnormal orofacial signs that were consistent with tardive dyskinesia. These symptoms persisted during the drug-free period. The extent of dyskinesias was assessed by using a score derived fromt that applied in humans (Abnormal Involuntary Movement Scale). There was a significant improvement of dyskinesias by more than 50% after application of flibanserin. That means that flibanserin is also helpful in the treatment of tardive dyskinesia in chronic schizophrenic patients.

[4] = tested on: rat cortical firing rate; conditions: in vivo; cited from earlier work
[5] = tested on: cultured dopaminergic cells (from fetal rat mesencephalic tissue); experiment: survival of cultured dopaminergic cells exposed to 6-hydroxydopamine; assay type: cell-based; conditions: toxin (6-hydroxydopamine) co-administered with flibanserin
Procedure: The reason of developing Parkinson's disease is a chronic process leading to a loss of dopaminergic neurons in a certain area of the EPS (substantia nigra). That process may be simulated in an experiment using cultured dopaminergic cells (from fetal rat mesencephalic tissue) which are exposed to a selective toxin (6-hydroxydompamine). The experiments were conducted in accordance with the method of Michel and Hefti, 1990. When the toxin was added to the cell culture medium the survival time of the neurons was markedly diminished. […] This indicates additionally neuroprotective properties of flibanserin. On the basis of these experiments it can be expected that patients treated with flibanserin will take benefit from said neuroprotective effect by slowing down or stopping the progression of the disease . Moreover, if flibanserin is given in early stages of the disease, a steady process leading to more severe stages may be postponed or even avoided. In particular, the occurrence of levodopa-induced dyskinesias can be prevented. In-so-far, a synergistic effect of the common administration of conventional anti-Parkinson drugs along with flibanserin in the treatment of Parkinson's disease is to be expected as increased “ON”-periods and decreased “OFF”-periods may be obtained.

[6] = target: 5-HT-induced PI turnover; conditions: rat cortex; read-out: antagonized 5-HT-induced PI turnover (Ki); cited from earlier work

SMILES: O=c1[nH]c2ccccc2n1CCN1CCN(c2cccc(C(F)(F)F)c2)CC1 [flibanserin, 2H-benzimidazol-2-one, 1,3-dihydro-1-(2-{4-[3-(trifluoromethyl)phenyl]-1-piperazinyl}ethyl)-]
- effect of levodopa on rigidity and bradykinesia ([1]; flibanserin in addition to levodopa): not weakened
- severity of dyskinesias (extent of choreic and dystonic movements) ([1]; flibanserin in addition to levodopa, MPTP marmosets treated orally with levodopa plus carbidopa for 3 weeks): significantly reduced said dyskinesias
- dyskinesia symptoms in monkeys with less severe dyskinesia ([1]; some of the monkeys with less severe dyskinesia): symptoms disappeared entirely
- EC50 [2]: 913 nM
- improvement of dyskinesias (score derived from Abnormal Involuntary Movement Scale) [3]: more than 50%
- inhibition of rat cortical firing rate [4]: dose-dependently inhibited rat cortical firing rate
- concentrations at which normal survival times were reached [5]: 0.1 to 1 µM
- survival time of neurons [5]: increased in a concentration-dependent manner
- Ki [6]: 113 nM
